The record followed here is patent US20230355586A1, “Application of Valdecoxib in preparation of medications for preventing and treating glaucoma” (Central South University, priority 2022, published 2023).

Data set [1] deals with PERK-ATF4-CHOP pathway. In words: Western blot of ER stress, PERK-ATF4-CHOP pathway and apoptosis proteins in R28 OGD/R model. It is filed as cell-based, rat. The conditions noted are these: R28 cells. For orientation: Immunoblotting shows a protein as a band on a membrane.
Data set [2] has as its system R28 cells. In words: Cell death of R28 cells pretreated with CCT020312. To be noted: R28 cells pretreated with different concentrations of CCT020312. The format is cell-based, rat.
The test system of data set [3] is R28 cells. In words: CCK-8 cell viability in R28 OGD/R model. The format is cell-based, rat. The conditions noted are these: 2 h post-OGD/R, vs. OGD/R group. The method, then: (§1) Through animal ethics, cell culture, animal selection, reagent and antibody information, anterior chamber compression rat model is established, […] cell OGD/R (oxygen-glucose deprivation/reoxygenation) model is established; HE (hematoxylin-eosin) staining, apoptosis by TUNEL (TdT-mediated dUTP Nick-End Labeling) detection, cell viability by CCK8 (Cell Counting Kit-8), Western blot assay, Annexin V-FITC/PI flow cytometry, PI/Hoechest staining and immunofluorescence assay are performed. The cell death rate at multiple time points with the OGD/R model is detected using PI staining. PI-positive cells are identified as dead cells. The proportion of PI-positive cells at multiple time points are calculated. […] To identify whether the valdecoxib's effect involved an anti-apoptosis mechanism, FCM (flow cytometry) is performed, and a further analysis indicates both that OGD/R induced cell apoptosis and the valdecoxib decreases the cell apoptosis rate, as shown in FIGS. 1E-1H.

For data set [4], the system named is R28 cells. In words: Annexin V-FITC/PI flow cytometry apoptosis in R28 OGD/R model. To be noted: vs. OGD/R group. The format is cell-based, rat. How it is done: as §1
(A flow cytometer gives signals particle by particle.)

For data set [5], the system named is retina / RGCs (retinal ganglion cells). The data set is described as follows: HE staining of retina in acute high intraocular pressure (aHIOP) retinal I/R model. To be noted: rat I/R model, 3 days post-injury, intravitreal injection. It is filed as in vivo, SD (Sprague-Dawley) rats. How it is done: (§2) Through animal ethics, cell culture, animal selection, reagent and antibody information, anterior chamber compression rat model is established, R28 cell OGD/R (oxygen-glucose deprivation/reoxygenation) model is established; HE (hematoxylin-eosin) staining, apoptosis by TUNEL (TdT-mediated dUTP Nick-End Labeling) detection, cell viability by CCK8 (Cell Counting Kit-8), Western blot assay, Annexin V-FITC/PI flow cytometry, PI/Hoechest staining and immunofluorescence assay are performed.
(§3) In order to evaluate the potential therapeutic prospect of VAL for saving RGCs (retinal ganglion cells) in glaucoma retinal injury, the glaucoma retinal IR is simulated by performing an aHIOP (acute high intraocular pressure) model on SD (Sprague-Dawley) rats. The rats are sacrificed and their eyeballs are removed at 1, 3 or 7 days post-IRI. HE staining is performed to detect the morphological changes in the retina. It is discovered that, compared to the control group, the retinas from 3 and 7 days post-IRI are markedly thinner. Additionally, lost RCGs or their disordered arrangement is observed at 3 and 7 days after IRI when compared with the control retina, as shown in FIGS. 2A and 2B. Next, the valdecoxib's effect on the RGCs in the FR model by HE staining and immunofluorescence. […] A TUNEL assay is performed to clarify whether valdecoxib's protective effect involves the anti-apoptosis mechanism. […]

The test system of data set [6] is RGCs (retinal ganglion cells). The data set is described as follows: TUNEL/RBPMS apoptosis assay of retina in aHIOP retinal I/R model. The conditions noted are these: rat I/R model, compared to the I/R group. It is filed as in vivo, SD (Sprague-Dawley) rats. How it is done: as §2, §3
The test system of data set [7] is PERK-ATF4-CHOP pathway. The data set is described as follows: Western blot of retina lysates in retinal I/R model. The format is in vivo, rats. To be noted: rat retina. The method, then: as §2, with “R28” left out, “performed. […] The expression levels of the apoptosis-related proteins are examined in the control, I/R, I/R+DMSO and I/R+valdecoxib groups. […] The expression levels of p-PERK, cleaved caspase 3 and GRP78 in RGCs are evaluated by immunofluorescence.” for “performed.”

The mark [8] stands for this setting: I/R, pretreated with valdecoxib.

Entries after “also recorded” stand apart in the source; their conditions may differ.

For `CCN(CC)CCC(=O)N1N=C(c2c(-c3ccccc3)c3cc(Br)ccc3[nH]c2=O)CC1c1ccc(Br)cc1` (centres unmarked) [CCT020312], in data set [1] (CCT020312 pre-treated group), the “bax expression level (Western blot)” value was “consistent with those of the PERK-ATF4-CHOP pathway proteins” and the “cleaved caspase 3 expression level (Western blot)” value is “consistent with those of the PERK-ATF4-CHOP pathway proteins”. Further, in data set [1] (valdecoxib pretreatment prior to CCT020312, vs. OGD/R+VAL), the “expression of markers of ER stress and the PERK-ATF4-CHOP pathway (Western blot)” value is listed as “reverses the valdecoxib's effects, increasing the expression”. In data set [2], the cell death entry is “no significant cell death”.
For `Cc1onc(-c2ccccc2)c1-c1ccc(S(N)(=O)=O)cc1` [valdecoxib], the “cell survival rate (CCK-8)” value in data set [3] (1 μmol/L) is recorded as “significantly elevates”. Also, in data set [3] (1 μmol/L, listed as VAL), the “cell survival rate (CCK-8)” value is reported as “significant increase”. In addition, the “cell survival rate (CCK-8)” value in data set [3] (5 μmol/L) is “significantly elevates”. The “cell survival rate (CCK-8)” value in data set [3] (5 μmol/L, listed as VAL) was “significant increase”. Moreover, the “cell apoptosis rate (flow cytometry)” value in data set [4] was “decreases”. Besides, in data set [5], the “RGCs' survival rate” value is “significantly increases” and the “retinal thickness (HE staining)” value was “significantly increases”. Moreover, in data set [6], the “TUNEL-positive RGCs” value is “reduced”. In data set [1] (valdecoxib pretreatment), the “ATF4 protein level (Western blot)” value is listed as “decrease the expression; also recorded: significantly reduces”, the “CHOP protein level (Western blot)” value is recorded as “decrease the expression; also recorded: significantly reduces”, the “GRP78 protein level (Western blot)” value is listed as “decrease the expression; also recorded: significantly reduces” and the “bax protein level (Western blot)” value is listed as “decreased; also recorded: significantly reduces”. Moreover, in data set [1] (valdecoxib pretreatment), the “bcl-2 protein expression (Western blot)” value is “opposite to that of the bax and cleaved caspase 3”; the “cleaved caspase 3 protein level (Western blot)” value is “decreased; also recorded: significantly reduces”; the “p-PERK protein level (Western blot)” value is on record as “decrease the expression; also recorded: significantly reduces”. For the same compound, in data set [7] (I/R injury), the “bax expression (Western blot)” value was “decreases the expression”; the “bcl-2 expression (Western blot)” value was “opposite of that of the bax and cleaved caspase 3”; the “cleaved caspase 3 expression (Western blot)” value is reported as “decreases the expression”. In data set [7] (setting [8]), the “ATF4 expression level (Western blot)” value is given as “reduced”, the “CHOP expression level (Western blot)” value is “reduced”, the “GRP78 expression (Western blot)” value is on record as “consistent with the PERK-ATF4-CHOP pathway proteins” and the “p-PERK expression level (Western blot)” value is “reduced”.
